Test results taken from patent US20230333087A1, “METHODS FOR MONITORING PATIENT RESPONSE TO TREATMENT OF RETINAL OXIDATIVE DISEASES” (BioJiva LLC, priority 2022, published 2023).

Key:
[1] = system: 4-HNE and 4-HHE formation; conditions: present in lipid bilayers; cited from earlier work
[2] = system: LPO and cell death; conditions: FRDA, INAD, PSP; cited from earlier work
[3] = clinical trials; cited from earlier work
[4] = system: iron-induced retinal autofluorescence and degeneration; assay: Iron-induced retinal autofluorescence and degeneration, cSLO and OCT imaging 1 week after intravitreal iron; assay type: in vivo, C57BL/6J mice; conditions: DHA diet versus previous study with regular chow without DHA (LabDiet 5001)
Experimental: To evaluate the protective effect of 0.25% D-DHA diet, confocal scanning laser ophthalmoscopy (cSLO) and optical coherence tomography (OCT) were employed for in vivo imaging at 1 week after injections. For the cSLO imaging, both blue autofluorescence (BAF) and near-infra autofluorescence (IRAF) were performed.
Adult male wild-type C57BL/6J mice (Stock No.000664, Jackson Labs, Bar Harbor, ME, USA) were housed in standard conditions under cyclic light (12 h:12 h light-dark cycle). Mice had ad libitum access to water and food. Beginning at 2 mo of age, mice were placed on the AIN93G diet described above, supplemented with 0.25% D-DHA or DHA (control diet) for 1 week, 2 weeks, 3 weeks, or 4 weeks prior to the intravitreal injection. Mice were given an intravitreal injection of 1 µl 0.5 mM ferric ammonium citrate diluted in 0.9% NaCl (saline) (MP Biomedicals LLC, Santa Ana, CA) or
1 µl of saline as control. Intravitreal injections were performed as previously described ^54. Mice were continued on respective diet until their final evaluation. All housing and procedures were performed according to the NIH Guide for the Care and Use of Experimental Animals and approved by the University of Pennsylvania Animal Care and Use Committee.
Mice were given general anesthesia and placed on a platform. Pupils were dilated with 1% tropicamide saline solution (Akorn, Inc., Lake Forest, IL). Optical coherence tomography (OCT) imaging was performed for visualization of the retinal structure by using a Bioptigen
Envisu (R2200, Bioptigen Inc., Durham, NC, USA) coupled to a broadband LED light source (T870-HP, Superlum Diodes, Ltd, Ireland). Confocal scanning laser ophthalmoscopy (cSLO) (Spectralis HRA, Heidelberg Engineering, Franklin, MA, USA) was used for visualization of retinal AF using BluePeak™ or simply blue AF (488 nm excitation) and near-infrared AF (787 nm excitation) imaging modes.

[5] = system: human RPE cell line ARPE-19; conditions: high-intensity light exposure; cited from earlier work

In the case of [2H]C([2H])(/C=C\CCCCC)/C=C\CCCCCCCC(=O)O [D2-linoleic acid], the “4-HNE and 4-HHE formation” value [1] is given as “downregulated not just 4-HNE but also 4-HHE formation”.

For [2H]C([2H])(/C=C\CCCCC)/C=C\CCCCCCCC(=O)OCC [RT001, 11,11-D2-Lin], the “LPO and cell death” value [2] is given as “inhibited LPO and rescued cell death” and the safety and tolerability [3] is given as “notable safety and tolerability”.

In the case of “docosahexaenoic acid [DHA, reference compound]”, the “severity of IVT iron induced damage” value [4] is listed as “less severe” and the “oxidative stress and LPO” value [5] is listed as “increased oxidative stress and LPO”.
